The test system of assay [1] is recombinant human anti-SARS-CoV antibody 03-018. Type of assay: binding. Also on record: Binding of antibody 03-018 to linear peptides of the N protein of SARS-CoV Urbani / Binding of antibody 03-018 to looped/cyclic peptides of the N protein of SARS-CoV Urbani: unit not given here.
Assay [2] relates to antibodies in sera from SARS patients (sera 1a, 1b, 2, 6, 37, 62, London, SARS-yellow, SARS-green). In kind it is binding, human. Also on record: Binding of serum 6 to linear peptides of protein X1 of SARS-CoV Urbani / Binding of serum 37 to linear peptides of protein X1 of SARS-CoV Urbani / Binding of serum 6 to looped/cyclic peptide (PEPSCAN-ELISA) / Binding of serum 37 to looped/cyclic peptide (PEPSCAN-ELISA) / Binding of serum 37 to looped/cyclic peptides of protein X1 of SARS-CoV Urbani / Binding of serum 6 to linear peptides of protein X2 / Binding of serum 37 to linear peptides of protein X2 / Binding of serum 37 to looped/cyclic peptides of protein X2 of SARS-CoV Urbani / Binding of serum 6 to linear peptides of protein M of SARS-CoV Urbani / Binding of serum 37 to linear peptides of protein M of SARS-CoV Urbani / Binding of serum 6 to looped/cyclic peptides of protein M of SARS-CoV Urbani / Binding of serum 37 to looped/cyclic peptides of protein M of SARS-CoV Urbani / Binding of serum 6 to linear peptides of protein X3 of SARS-CoV Urbani / Binding of serum 37 to linear peptides of protein X3 of SARS-CoV Urbani / Binding of serum 37 to looped/cyclic peptides of protein X3 of SARS-CoV Urbani / Binding of serum 6 to linear peptides of protein X4 of SARS-CoV Urbani / Binding of serum 37 to linear peptides of protein X4 of SARS-CoV Urbani / Binding of serum 37 to looped/cyclic peptides of protein X4 of SARS-CoV Urbani / Binding of serum 6 to linear peptides of protein X5 of SARS-CoV Urbani / Binding of serum 37 to linear peptides of protein X5 of SARS-CoV Urbani / Binding of serum 37 to looped/cyclic peptides of protein X5 of SARS-CoV Urbani / Binding of serum 6 to linear peptides of protein N of SARS-CoV Urbani / Binding of serum 37 to linear peptides of protein N of SARS-CoV Urbani / Binding of serum 6 to linear peptide (PEPSCAN-ELISA) / Binding of serum 1a to looped/cyclic peptides of protein N of SARS-CoV Urbani / Binding of serum 1b to looped/cyclic peptides of protein N of SARS-CoV Urbani / Binding of serum 2 to looped/cyclic peptides of protein N of SARS-CoV Urbani / Binding of serum 6 to looped/cyclic peptides of protein N of SARS-CoV Urbani / Binding of serum 37 to looped/cyclic peptides of protein N of SARS-CoV Urbani / Binding of serum 62 to looped/cyclic peptides of protein N of SARS-CoV Urbani / Binding of serum London to looped/cyclic peptides of protein N of SARS-CoV Urbani / Binding of serum SARS-green to looped/cyclic peptides of protein N of SARS-CoV Urbani: unit not given here.

Assay [3] relates to rabbit serum obtained by immunizing a rabbit with the SARS-CoV strain Frankfurt 1. In kind it is binding. Also on record: Binding of a rabbit serum to linear peptides / Binding of a rabbit serum to looped peptides / Rabbit serum linear peptides / Rabbit serum looped peptides / Binding of a rabbit serum to linear peptides of protein N of SARS-CoV Urbani (Rabbit serum linear peptides) / Binding of a rabbit serum to looped/cyclic peptides of protein N of SARS-CoV Urbani (Rabbit serum looped peptides): unit not given here.

For assay [4], the system named is control sera (pooled serum of ten healthy LUMC hospital workers; commercial negative donor pooled serum from the Dutch bloodbank). Type of assay: binding, human. Also noted: Binding of Control serum LUMC to linear peptides / Binding of Control serum Blood-bank to linear peptides / Binding of Control serum LUMC to looped peptides / Binding of Control Serum Blood-Bank to Looped peptides / Binding of Control serum LUMC to linear peptides of the protein M of SARS-CoV Urbani / Binding of Control serum Blood-bank to linear peptides of the protein M of SARS-CoV Urbani / Binding of Control serum LUMC to looped peptides of the protein M of SARS-CoV Urbani / Binding of Control Serum Blood-Bank to Looped peptides of the protein M of SARS-CoV Urbani: unit not given here.

Regarding TRRVRGGDGKMKELS, in assay [1], the “Binding of antibody 03-018 to linear peptides of the N protein of SARS-CoV Urbani” value amounted to 0.1 and the “Binding of antibody 03-018 to looped/cyclic peptides of the N protein of SARS-CoV Urbani” value was 0.2. Further, in assay [2], the “Binding of serum 1a to linear peptides of protein N of SARS-CoV Urbani” value was 0.3, the “Binding of serum 1a to looped/cyclic peptides of protein N of SARS-CoV Urbani” value was 0.2, the “Binding of serum 1b to linear peptides of protein N of SARS-CoV Urbani” value turned out to be 0.2 and the “Binding of serum 1b to looped/cyclic peptides of protein N of SARS-CoV Urbani” value is 0.1. In assay [2], the “Binding of serum 2 to linear peptides of protein N of SARS-CoV Urbani” value was determined as 0.3, the “Binding of serum 2 to looped/cyclic peptides of protein N of SARS-CoV Urbani” value was found to be 0.2, the “Binding of serum 6 to linear peptides of protein N of SARS-CoV Urbani” value was 0.3 and the “Binding of serum 6 to looped/cyclic peptides of protein N of SARS-CoV Urbani” value is recorded as 0.2. Further, in assay [2], the “Binding of serum 37 to linear peptides of protein N of SARS-CoV Urbani” value stood at 0.7, the “Binding of serum 37 to looped/cyclic peptides of protein N of SARS-CoV Urbani” value is reported as 0.4, the “Binding of serum 62 to linear peptides of protein N of SARS-CoV Urbani” value is listed as 0.8 and the “Binding of serum 62 to looped/cyclic peptides of protein N of SARS-CoV Urbani” value is recorded as 0.3. Besides, in assay [2], the “Binding of serum London to linear peptides of protein N of SARS-CoV Urbani” value worked out at 0.5, the “Binding of serum London to looped/cyclic peptides of protein N of SARS-CoV Urbani” value was found to be 0.3, the “Binding of serum SARS-green to linear peptides of protein N of SARS-CoV Urbani” value is recorded as 0.3 and the “Binding of serum SARS-green to looped/cyclic peptides of protein N of SARS-CoV Urbani” value is reported as 0.0. Also, in assay [2], the “Binding of serum SARS-yellow to linear peptides of protein N of SARS-CoV Urbani” value is 0.7 and the “Binding of serum SARS-yellow to looped/cyclic peptides of protein N of SARS-CoV Urbani” value is reported as 0.2. In addition, in assay [3], the “Binding of a rabbit serum to linear peptides of protein N of SARS-CoV Urbani (Rabbit serum linear peptides)” value was found to be 0.2 and the “Binding of a rabbit serum to looped/cyclic peptides of protein N of SARS-CoV Urbani (Rabbit serum looped peptides)” value is listed as 0.3. For the same sequence, in assay [4], the “Binding of Control Serum Blood-Bank to Looped peptides” value is 0.5, the “Binding of Control serum Blood-bank to linear peptides” value came out at 0.7, the “Binding of Control serum LUMC to linear peptides” value is on record as 0.8 and the “Binding of Control serum LUMC to looped peptides” value was determined as 0.5.
Take TVTKKSAAEASKKPR: in assay [1], the “Binding of antibody 03-018 to linear peptides of the N protein of SARS-CoV Urbani” value is listed as 0.1 and the “Binding of antibody 03-018 to looped/cyclic peptides of the N protein of SARS-CoV Urbani” value is listed as 0.2. Further, in assay [2], the “Binding of serum 1a to looped/cyclic peptides of protein N of SARS-CoV Urbani” value came out at 0.2, the “Binding of serum 1b to looped/cyclic peptides of protein N of SARS-CoV Urbani” value was determined as 0.1, the “Binding of serum 2 to looped/cyclic peptides of protein N of SARS-CoV Urbani” value is listed as 0.2 and the “Binding of serum 6 to looped/cyclic peptides of protein N of SARS-CoV Urbani” value turned out to be 0.1. For the same sequence, in assay [2], the “Binding of serum 37 to looped/cyclic peptides of protein N of SARS-CoV Urbani” value is listed as 0.5, the “Binding of serum 62 to looped/cyclic peptides of protein N of SARS-CoV Urbani” value was determined as 0.3, the “Binding of serum London to looped/cyclic peptides of protein N of SARS-CoV Urbani” value was 0.3 and the “Binding of serum SARS-green to looped/cyclic peptides of protein N of SARS-CoV Urbani” value was determined as 0.0. In addition, in assay [2], the “Binding of serum SARS-yellow to looped/cyclic peptides of protein N of SARS-CoV Urbani” value turned out to be 0.2; the “Recognition of the peptide by sera of SARS-CoV infected individuals, and form (linear, looped/cyclic) in which it is recognized” value is “recognized in linear form”. For the same sequence, in assay [3], the “Binding of a rabbit serum to linear peptides of protein N of SARS-CoV Urbani (Rabbit serum linear peptides)” value worked out at 0.2 and the “Binding of a rabbit serum to looped/cyclic peptides of protein N of SARS-CoV Urbani (Rabbit serum looped peptides)” value was determined as 0.5. Besides, in assay [4], the “Binding of Control Serum Blood-Bank to Looped peptides” value stood at 0.4, the “Binding of Control serum Blood-bank to linear peptides” value turned out to be 1.0, the “Binding of Control serum LUMC to linear peptides” value came out at 1.0 and the “Binding of Control serum LUMC to looped peptides” value worked out at 0.3.

The values above are taken from patent US20070128217A1 (priority 2003, published 2007).
